Source: patent US20200171165A1, “ENHANCED TARGETED DELIVERY OF THERAPEUTIC AGENTS” (Proteogenomics Research Institute for Systems Medicine, priority 2018, published 2020)

Assays:
[1] = tested on: HER2/neu spontaneous mammary tumors; test: HER2/neu transgenic spontaneous mammary tumor model: survival and toxicity; type: in vivo, mouse; details: single IV dose 5 mg/kg
Description: We also performed a pilot efficacy study of hAnnA1-CMD-Pt(II) in a genetically engineered mouse HER2/neu model that develops spontaneous mammary tumors (GuyWebster et al., 1992; Reilly et al., 2000).

[2] = tested on: mammary tumors (N202); test: IVM ectopic-orthotopic (EO) mammary tumor model, spheroids in dorsal skin window chambers: tumor growth
Description: We used the classic IVM tumor model with modifications (Asaishi et al., 1981; Endrich et al., 1980; Vajkoczy et al., 2000). The mice, usually athymic nude mice (25-30 g body weight), were anesthetized (7.3 mg ketamine hydrochloride and 2.3 mg xylazine per 100 g body weight, intraperitoneal injection) and placed on a heating pad. A titanium frame was placed onto the dorsal skinfold of mice to sandwich the extended double layer of skin. A 15 mm diameter full-thickness circular layer of skin was then excised. The superficial fascia on top of the remaining skin was carefully removed to expose the underlying muscle and subcutaneous tissue which was then covered with another titanium frame with a glass coverslip to form the window chamber. After a recovery period of 1-2 days, tumor spheroids were implanted.
Tumor spheroids were formed by plating 50,000 cells onto 1% agar-coated 96-well non-tissue culture treated flat bottom dishes (20 μl cells in 100 μl medium) and centrifuging 4 times at 2000 rpm for 15 min, rotating the dish after every centrifugation. The cells were incubated an additional 3-7 days (depending on cell type) at 37° C. in 5% CO2 in air to form tight spheroids. BT-474 cells required 500,000 cells in the presence of Matrigel (BD Bioscience, San Diego) (1:1 cell volume dilution) to form spheroids in culture. […]
Tumors were imaged using intravital fluorescence microscopy, as described (Borgstrom et al., 2013; Oh et al., 2007; Oh et al., 2014). Tumor growth was analyzed off-line from the recorded, digital, grayscale 0-to-256 images using Image-Pro Plus (Media Cybernetics, Bethesda, Md.). Tumor growth was determined in 2 ways, by measuring the area with fluorescence signal from the GFP or CFP expressing tumor cells or by quantifying the cumulative fluorescence signal for the tumor over time. Tumor area is measured by counting the number of pixels with a grayscale intensity above 75, thereby making it easier to reliably follow irregularly shaped tumors. The cumulative tumor fluorescence signal was measured by signal summation of all pixels over 75. […]

N.N.[Cl][Pt][Cl] [cisplatin]
Mean extension in survival vs untreated controls [1]: 30 days

CC(=O)O[C@@]12CO[C@@H]1C[C@H](O)[C@@]1(C)C(=O)[C@H](O)C3=C(C)[C@@H](OC(=O)[C@H](O)[C@@H](NC(=O)OC(C)(C)C)c4ccccc4)C[C@@](O)([C@@H](OC(=O)c4ccccc4)[C@H]21)C3(C)C [docetaxel]
Tumor response ([2]; unconjugated drug 5 mg/kg): produced less benefit

COc1cccc2c1C(=O)c1c(O)c3c(c(O)c1C2=O)C[C@@](O)(C(=O)CO)C[C@@H]3O[C@H]1C[C@H](N)[C@H](O)[C@H](C)O1 [free doxorubicin, doxorubicin]
Tumor response (IVM) ([2]; free drug 1 mg/kg): no effect | Tumor response (IVM) ([2]; free drug 5 mg/kg (near MTD)): slowed tumor growth modestly
